Test results from US12637468B2, “Substituted [1,2,4]triazolo[4,3-b]pyridazines as GABAA receptor modulators” (SHANGHAI SIMR BIOTECHNOLOGY CO., LTD., priority 2019, dated 2026).
In brackets after ≈: the same amount, converted by molar mass.

Assays:
[1] = Water solubility observed on extraction work-up; type: physicochemical; conditions: observed on extraction with ethyl acetate at pH=7
Method: Methyl 6-[7-methoxy-3-(5-methyl-isoxazol-3-yl)-[1,2,4]triazolo[4,3-b]pyridazin-6-yloxymethyl]-nicotinate (300 mg, 0.75 mmol), 1M lithium hydroxide (1.5 mL, 1.5 mmol) were sequentially added to 10 mL of ethanol, and the mixture was stirred at room temperature for 1 hour. The mixture was added with 0.5 M hydrochloric acid to neutralize to pH=7, diluted with water, extracted with ethyl acetate. […] LC-MS: m/z [M+H]^+=383.

α5-GABAA receptor [2] = target: T1, α5-GABAA receptor (Homo sapiens, UniProt P18507+P31644); assay: Cell-level screening: whole cell patch clamp, inverse agonist efficacy on α5-GABAA receptor expressed in HEK293; type: cell-based; conditions: drug 100 nM, GABA 0.05 μM, HEK293 expressing α5, β3 and γ2 subunits, clamped at −60 mV; read-out: Compound inverse agonist efficacy %
T1 construct: expressed in transfected cells; host or cells: HEK293, monoclonal stably transfected line
Procedure, shortened: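 Whole-cell patch clamp at −60 mV on HEK293 stably expressing α5β3γ2, pH 7.4 extracellular/CsCl internal solutions. Current evoked by 0.05 μM GABA, then compound in GABA solution; screening at 100 nM, dose-response 0.3–300 nM. Inverse agonist efficacy as % change of GABA current.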

[3] = Thermodynamic solubility in simulated intestinal fluid (TS in FaSSIF); type: physicochemical; conditions: thermodynamic from solid, 37° C.
Procedure, shortened: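 About 0.3 mg solid shaken in 1.5 mL FaSSIF-V2 at 1000 rpm, 37° C, 4 hours, in duplicate, then filtered. Filtrate quantified by HPLC-UV against 1 μM-200 μM standards diluted from 10 mM DMSO stock.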

α5-GABAA receptor [4] = conditions: in vivo; cited from earlier work
α5-GABAA receptor [5] = conditions: in vivo; cited from earlier work; remark: listed apart in the source
[6] = Pharmacokinetic experiment on rats: maximum plasma drug concentration (Cmax); type: in vivo, rat; conditions: male SD rats, po, 10 mg/kg, vehicle 5% CMC-Na aqueous solution
Method: In the pharmacokinetic experiment on rats, the maximum plasma drug concentration (Cmax) was used to evaluate the absorption of the compounds in rats. All rats fasted overnight before administration; the test compounds were dissolved and administered orally (po) to male SD rats, with 3 rats in each group. After administration of the test compounds, blood was collected by jugular vein puncture at […] with about 0.25 mL per sample. The plasma drug concentration was determined by LC-MS/MS method, and the pharmacokinetic parameters were calculated by Phoenix WinNonlin7.0. The dosage was 10 mg/kg, and the vehicle was 5% CMC-Na aqueous solution.

[7] = Pharmacokinetic experiment on rats: brain entry ratio (brain tissue/plasma concentration ratio); type: in vivo; conditions: rat, male SD rats, po 10 mg/kg, Table 6
Method: The drug concentration ratio of plasma and brain tissue in the pharmacokinetic experiment on rats was used to evaluate the entry of compounds into brain. All rats fasted overnight before administration; the test compounds were dissolved and administered orally (po) to male SD rats, with 3 rats in each group. After administration of the test compounds, blood was collected by jugular vein puncture at 0.5 hours with about 0.25 mL per sample. The whole brain was taken at the same time. The plasma and brain tissue drug concentration were determined by LC-MS/MS method, and the pharmacokinetic parameters were calculated by Phoenix WinNonlin7.0. The dosage was 10 mg/kg, and the vehicle was 5% CMC-Na aqueous solution.

T1 sequence (P31644 32-462): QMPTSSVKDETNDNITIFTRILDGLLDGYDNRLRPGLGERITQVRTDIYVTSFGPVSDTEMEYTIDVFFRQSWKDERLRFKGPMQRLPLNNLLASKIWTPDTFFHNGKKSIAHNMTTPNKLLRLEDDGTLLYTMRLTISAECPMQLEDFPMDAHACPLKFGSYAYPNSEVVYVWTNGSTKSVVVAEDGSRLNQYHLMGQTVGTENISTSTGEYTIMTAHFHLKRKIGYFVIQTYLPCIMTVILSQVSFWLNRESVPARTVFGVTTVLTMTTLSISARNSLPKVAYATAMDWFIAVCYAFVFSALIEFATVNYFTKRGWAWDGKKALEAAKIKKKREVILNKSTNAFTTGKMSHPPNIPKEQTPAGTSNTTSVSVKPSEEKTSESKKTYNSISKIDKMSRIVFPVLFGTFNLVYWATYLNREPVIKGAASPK
T1 sequence (P28472 26-473 partner): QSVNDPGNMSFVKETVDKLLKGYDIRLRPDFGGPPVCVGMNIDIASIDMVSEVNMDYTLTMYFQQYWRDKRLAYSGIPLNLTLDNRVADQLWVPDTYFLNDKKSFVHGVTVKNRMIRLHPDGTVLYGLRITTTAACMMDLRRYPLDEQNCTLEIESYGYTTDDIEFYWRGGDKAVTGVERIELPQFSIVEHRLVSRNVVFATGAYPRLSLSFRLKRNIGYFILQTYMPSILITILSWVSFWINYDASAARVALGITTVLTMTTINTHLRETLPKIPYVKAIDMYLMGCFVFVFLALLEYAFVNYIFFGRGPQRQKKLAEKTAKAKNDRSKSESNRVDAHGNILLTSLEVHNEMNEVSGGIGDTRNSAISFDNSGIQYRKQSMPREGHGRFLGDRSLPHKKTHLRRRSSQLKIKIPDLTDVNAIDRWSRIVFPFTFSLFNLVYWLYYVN
T1 sequence (P18507 40-467 isoform P18507-1 limits assumed): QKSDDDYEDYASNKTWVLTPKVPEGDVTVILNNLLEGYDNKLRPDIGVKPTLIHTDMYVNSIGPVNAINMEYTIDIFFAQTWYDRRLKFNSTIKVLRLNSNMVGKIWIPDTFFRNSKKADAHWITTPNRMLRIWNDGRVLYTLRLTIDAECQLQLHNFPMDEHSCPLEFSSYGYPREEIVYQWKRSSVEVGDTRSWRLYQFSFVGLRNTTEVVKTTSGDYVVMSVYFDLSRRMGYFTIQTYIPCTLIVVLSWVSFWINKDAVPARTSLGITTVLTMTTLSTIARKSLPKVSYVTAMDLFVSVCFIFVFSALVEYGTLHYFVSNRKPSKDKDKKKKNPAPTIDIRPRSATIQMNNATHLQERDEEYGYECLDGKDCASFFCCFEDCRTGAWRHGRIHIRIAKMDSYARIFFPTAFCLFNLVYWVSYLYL

Row | SMILES | Maximum plasma drug concentration [6] | Kp at 0.5 h [7] | inhibition of (3H)RO-15-1788 binding in the central nervous system (α5-GABAA receptor [4]) | therapeutic effects on the treatment of cognition related diseases in animal models (α5-GABAA receptor [5]) | also measured
1 | COc1cc2nnc(-c3cc(C)on3)n2nc1OCc1ccc(C(=O)O)cn1 [Embodiment 63, 6-(((7-Methoxy-3-(5-methylisoxazol-3-yl)-[1,2,4]triazolo[4,3-b]pyridazin-6-yl)oxy)methyl)nicotinate] | – | – | – | – | water solubility [1]: good water solubility; inhibition at 0.1 µM (α5-GABAA receptor [2]): 24.2%; solubility thermodynamic at 4 h [3]: 307 µg/mL (≈ 803 µM)
2 | Cn1ncnc1COc1nn2c(-c3cc(CO)on3)nncc2c1C(C)(C)C [MRK016-M3] | – | – | hardly inhibit | – | –
3 | Cc1cc(-c2nncc3c(C(C)(C)C)c(OCc4ncnn4C)nn23)no1 [MRK-016] | – | – | effectively inhibit | good therapeutic effects | –
4 | Cc1cc(-c2nnc3c4ccccc4c(OCc4cn(C)nn4)nn23)no1 [α5IA] | – | – | – | good therapeutic effects | –

Continued, in another order:

Row | Maximum plasma drug concentration [6] | Kp at 0.5 h [7] | SMILES | inhibition of (3H)RO-15-1788 binding in the central nervous system (α5-GABAA receptor [4]) | therapeutic effects on the treatment of cognition related diseases in animal models (α5-GABAA receptor [5]) | also measured
5 | 25.7 ng/ mL ng/mL | 1.51 | Cc1cc(-c2nnc3c4ccccc4c(OCc4ccccn4)nn23)no1 [drawing 929, reference compound] | – | – | –
6 | 216 ng/mL | 0.651 | Cc1cc(-c2nnc3cc(C(C)(C)C)c(OCc4ccccn4)nn23)no1 [drawing 930, reference compound] | – | – | –
